From patent US12428394B2, “2,4-disubstituted pyrimidine derivative, preparation method therefor and use thereof” (CHENGDU ZENITAR BIOMEDICAL TECHNOLOGY CO., LTD., priority 2019, dated 2025) come the findings set out here.

Read-outs that look alike come from different tables or passages of the source.

Series [1] relates to MOLM-13 cells (FLT3-ITD-/+). Kind of series: Inhibition of cell proliferation by MTT experiment, MOLM-13. It is filed as cell-based, human. The following applies: Homo sapiens, MOLM-13, 72 h, read-out: IC50 value on cell proliferation inhibition, MOLM-13 FLT3-ITD-/+. The essentials:
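MTT assay in MV4-11, MOLM-13 (FLT3-ITD) and SET-2 (JAK2 V617F) cells at 10,000–15,000 cells/well in IMDM with 10% FBS. Cells are exposed to compound for 72 h at 37 °C, then to MTT for 1–3 h. IC50 is fitted from inhibition rates across concentrations.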

The target of series [2] is T1, JAK3 (Homo sapiens, UniProt P52333).
T1 construct: purchased Eurofins
T1 sequence (P52333 1-1124): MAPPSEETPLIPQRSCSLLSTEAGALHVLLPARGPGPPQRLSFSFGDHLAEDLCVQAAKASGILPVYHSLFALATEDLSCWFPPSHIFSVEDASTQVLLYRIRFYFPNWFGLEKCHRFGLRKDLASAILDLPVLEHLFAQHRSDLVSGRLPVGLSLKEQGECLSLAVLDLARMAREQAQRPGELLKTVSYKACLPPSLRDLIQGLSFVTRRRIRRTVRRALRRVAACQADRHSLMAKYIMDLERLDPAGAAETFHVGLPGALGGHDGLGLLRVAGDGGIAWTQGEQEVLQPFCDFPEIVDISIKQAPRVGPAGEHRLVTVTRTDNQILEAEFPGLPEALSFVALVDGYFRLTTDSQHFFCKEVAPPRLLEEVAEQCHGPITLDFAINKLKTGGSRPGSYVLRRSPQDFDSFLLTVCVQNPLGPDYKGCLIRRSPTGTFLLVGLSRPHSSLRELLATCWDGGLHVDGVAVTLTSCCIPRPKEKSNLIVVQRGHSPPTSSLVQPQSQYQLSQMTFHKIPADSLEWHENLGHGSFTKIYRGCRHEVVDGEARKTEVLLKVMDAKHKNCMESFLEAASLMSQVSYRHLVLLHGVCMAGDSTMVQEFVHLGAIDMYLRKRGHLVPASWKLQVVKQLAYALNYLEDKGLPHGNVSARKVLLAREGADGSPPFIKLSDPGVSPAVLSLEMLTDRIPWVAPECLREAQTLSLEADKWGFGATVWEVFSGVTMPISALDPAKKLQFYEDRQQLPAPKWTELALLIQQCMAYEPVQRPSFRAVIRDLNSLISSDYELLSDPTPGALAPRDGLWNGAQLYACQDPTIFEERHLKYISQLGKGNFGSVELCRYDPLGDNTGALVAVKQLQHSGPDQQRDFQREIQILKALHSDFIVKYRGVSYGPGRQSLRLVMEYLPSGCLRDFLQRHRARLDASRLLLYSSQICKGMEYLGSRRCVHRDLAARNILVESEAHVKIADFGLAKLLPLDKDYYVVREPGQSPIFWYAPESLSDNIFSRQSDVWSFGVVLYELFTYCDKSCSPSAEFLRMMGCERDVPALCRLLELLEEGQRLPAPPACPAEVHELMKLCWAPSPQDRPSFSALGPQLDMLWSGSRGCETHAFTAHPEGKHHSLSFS
The series is described as follows: In vitro kinase activity experiment, JAK3. The series is classed as biochemical. The method, then: Buffer solution ([…], pH 7.0, 0.2 mm EDTA, 10 mM mncl2), kinase to be tested, substrate of kinase to be tested, 10 mM magnesium acetate and γ33P-ATP solution, and compounds with different concentrations were added to a reaction tube in turn, then MgATP was added to initiate the enzyme reaction process, and incubated at room temperature for 40 min. Then, the reaction was terminated with 5 μl of […], and 10 μl of the reaction solution was titrated onto the Filtermat A membrane, washed with 75 mM phosphate solution for three times, each time for 5 min., and then washed with methanol once. Finally, the Filtermat A membrane was dried and the scintillation count was carried out.

Series [3] has as its system JAK2V617F. The series is described as follows: JAK2V617F-induced myelofibrosis mouse model. The series is classed as in vivo, BALB/c mice. The settings on record: 30 mg/Kg, oral twice a day, after 8 weeks of treatment. An excerpt: JAK2 mutant JAK2V617F gene vector MSCV-JAK2V617F-GFP (Chengdu Wandao Biotechnology Development Co., Ltd.) and BALB/c mice (Jiangsu Jicui Yaokang Biotechnology Co., Ltd.) were provided as donors. The mouse bone marrow cells were sampled and infected with JAK2V617F virus, and the infected cells were reinfused into BALB/c recipient mice irradiated by X-rays through tail vein. Then, the JAK2V617F-positive myelofibrosis mouse model was induced. […] The administration route was oral administration twice a day, and the mice in the blank control group and the model group took the same volume of normal saline orally. […] Therefore, modifications or improvements made without departing from the spirit of the present invention are within the scope of protection of the present invention.

Series [4] has as its system MV4-11 cells. The series is classed as in vivo. The settings on record: for Tumor inhibition rate (%): MV4-11 model, oral, QD × 6. Here is the method: (§1) MV4-11 cells and SET-2 cells were used to establish a mouse xenograft model to investigate the efficacy. NOD/SCID immunocompromised mice (purchased from Beijing Huafukang Biotechnology Co., Ltd.) were received and acclimated to the environment until they were normalized in diet and activity. MV4-11 and SET-2 cells were routinely incubated and grew to 80% fusion degree. Then, the cells were collected and counted on a blood cell counting plate, with the cell concentration adjusted to 3×10^7 cells/mL. After the cells were collected, 100 μL of cell suspension was inoculated subcutaneously on the back of mice. When the tumor volume reached 100 mm^3, the drug administration was started. The dosage regimen was oral administration every day. […].

Series [5] concerns SET-2 cells. It is filed as in vivo. The following applies: for Tumor inhibition rate (%): SET-2 model, oral. Here is the method:
as §1

Series [6] has as its target T2, JAK2 (Homo sapiens, UniProt O60674).
T2 construct: purchased Eurofins
Kind of series: In vitro kinase activity experiment, JAK2. The series is classed as biochemical. The settings on record: inhibition rate of enzyme at 500 nM; measured by Eurofins. The essentials: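 Radiometric filter-binding assay: kinase, its substrate and compound in 8 mM MOPS pH 7.0, 0.2 mM EDTA, 10 mM MnCl2, with 10 mM magnesium acetate and γ33P-ATP; MgATP started the reaction, 40 min at room temperature. Stopped with 3% phosphate, spotted on Filtermat A, washed, scintillation counted.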

T2 sequence (O60674 whole entry): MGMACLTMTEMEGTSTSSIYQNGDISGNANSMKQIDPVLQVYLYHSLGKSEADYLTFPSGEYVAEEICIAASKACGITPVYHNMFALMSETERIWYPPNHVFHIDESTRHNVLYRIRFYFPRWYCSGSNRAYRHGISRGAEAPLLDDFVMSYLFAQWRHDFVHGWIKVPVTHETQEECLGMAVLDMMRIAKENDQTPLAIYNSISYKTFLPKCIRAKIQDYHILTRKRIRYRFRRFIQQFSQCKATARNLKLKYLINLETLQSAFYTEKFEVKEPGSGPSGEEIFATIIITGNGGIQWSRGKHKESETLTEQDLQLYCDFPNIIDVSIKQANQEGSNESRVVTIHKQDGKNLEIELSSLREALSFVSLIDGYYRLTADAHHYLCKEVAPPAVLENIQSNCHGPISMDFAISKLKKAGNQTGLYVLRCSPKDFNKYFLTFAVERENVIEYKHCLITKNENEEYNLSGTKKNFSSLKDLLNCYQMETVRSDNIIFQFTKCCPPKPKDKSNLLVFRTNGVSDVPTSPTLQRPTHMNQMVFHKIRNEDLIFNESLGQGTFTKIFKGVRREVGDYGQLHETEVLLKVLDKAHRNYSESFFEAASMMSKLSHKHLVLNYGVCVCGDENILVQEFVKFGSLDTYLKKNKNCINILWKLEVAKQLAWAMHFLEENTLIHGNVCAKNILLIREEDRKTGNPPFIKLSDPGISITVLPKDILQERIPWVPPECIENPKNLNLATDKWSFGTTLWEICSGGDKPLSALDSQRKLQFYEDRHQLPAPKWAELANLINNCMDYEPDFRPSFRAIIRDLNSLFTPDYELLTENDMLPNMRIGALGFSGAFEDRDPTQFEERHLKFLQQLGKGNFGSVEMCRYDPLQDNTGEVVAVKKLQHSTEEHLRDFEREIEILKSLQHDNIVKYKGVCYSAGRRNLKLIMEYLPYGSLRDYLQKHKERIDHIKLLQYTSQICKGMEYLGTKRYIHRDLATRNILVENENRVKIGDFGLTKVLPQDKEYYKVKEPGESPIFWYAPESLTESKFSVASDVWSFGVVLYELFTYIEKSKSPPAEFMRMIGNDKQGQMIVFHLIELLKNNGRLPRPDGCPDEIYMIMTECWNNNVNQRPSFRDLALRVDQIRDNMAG

Turning to `Cc1cnc(Nc2ccc(N3CCC(N(C)CCO)CC3)c(F)c2)nc1-c1cnn(C(C)C)c1` [CLJ-44, 5-methyl-N-(3-fluoro-4-(4-N-hydroxyethyl-4-N-methylaminopiperidine-1-yl)phenyl)-4-(1-isopropyl-1H-pyrazole-4-yl) pyrimidine-2-amine], the results for the IC50 in series [1] and in series [2] were 10 to 100 nM and 46 nM, respectively. For the same molecule, in series [3], the “inhibition of growth rate of spleen” value was 96.73%. For the same molecule, the “Tumor inhibition rate (%)” value was 58% in series [4] (30 mg/kg), 93% in series [4] (60 mg/kg), 66% in series [5] (30 mg/kg) and 85% in series [5] (60 mg/kg). Moreover, the “tolerability, effect on body weight” value in series [4] (mouse, in vivo) was “well tolerated and has no adverse effect on body weight”; in series [5] (mouse, in vivo) it was “well tolerated and has no adverse effect on body weight”. In series [6], the “Kinase activity @ 500 nM (%) JAK2” value is 100%.
